Measured values: patent publication US8080569B2, “Imidazo[2,1-b]thiazoles and their use as pharmaceuticals” (Sanofi-Aventis, priority 2006, dated 2011)

What follows are compounds tested on eNOS promoter (assay: Activation of eNOS transcription (eNOS promoter-luciferase reporter in human endothelial cell line)). Details: human endothelial cell line stably transfected with eNOS promoter-luciferase construct, 18 h incubation, EC50 determined graphically; read-out: EC50 values of transcription induction ratios (TIR).
Format: cell-based
Method: A) Activation of eNOS Transcription
Activation of eNOS transcription was measured as described in detail by Li et al., “Activation of protein kinase C alpha and/or epsilon enhances transcription of the human endothelial nitric oxide synthase gene”, Mol. Pharmacol. 53 (1998), 630-637. Briefly, a 3.5 kB long fragment 5′ of the starting codon of the eNOS gene was cloned, sequenced and cloned in firefly luciferase expression plasmids to monitor activation of the eNOS promoter by reporter gene activity. A human endothelial cell line stable transfected and expressing this promoter-reporter construct was used for compound testing. Cells were incubated for 18 h with the compounds.
All compounds were dissolved in sterile dimethyl sulfoxide (DMSO). A final concentration of 0.5% DMSO in complete medium was allowed. Induction of reporter gene expression in these cells was measured using a standard luciferase assay system (Promega, Cat. No. E150) according to the manufacturer's instructions. Luciferase induction in cells incubated with compounds were compared to those incubated with solvent alone. The ratio of both activities (transcription induction ratio, TIR) was plotted as a function of compound concentration. Typically, TIR values started at low concentrations at a ratio of 1, indicating no compound effect, and extended up to a maximum TIR value TIR(max) which indicates the increase of the eNOS transcription. EC50 values of transcription induction ratios as a function of compound concentration were determined graphically.

EC50, < 0.5 µM:
CCOC(=O)c1sc2nc(-c3cccc(Cl)c3)cn2c1C [Example 2, 6-(3-Chloro-phenyl)-3-methyl-imidazo[2,1-b]thiazole-2-carboxylic acid ethyl ester]
Cc1c(C(=O)NC(C)(C)C)sc2nc(-c3ccc(F)cc3)cn12 [Example 10, 6-(4-Fluoro-phenyl)-3-methyl-imidazo[2,1-b]thiazole-2-carboxylic acid tert-butylamide]
Fc1ccc(-c2cn3cc(Br)sc3n2)cc1 [Example 22, 2-Bromo-6-(4-fluoro-phenyl)-imidazo[2,1-b]thiazole]
CCOC(=O)c1sc2nc(-c3ccc(F)cc3)cn2c1C [Example 1, 6-(4-Fluoro-phenyl)-3-methyl-imidazo[2,1-b]thiazole-2-carboxylic acid ethyl ester]
CCOC(=O)c1sc2nc(-c3ccc(C)cc3)cn2c1C [Example 3, 3-Methyl-6-p-tolyl-imidazo[2,1-b]thiazole-2-carboxylic acid ethyl ester]
